Laboratory results reported in PMC9706565, “Covalently Conjugated NOD2/TLR7 Agonists Are Potent and Versatile Immune Potentiators” (Journal of Medicinal Chemistry, 2022).

Columns and labels:
TLR7 = molecular target: T1, TLR7 (Homo sapiens, UniProt Q9NYK1); assay: NF-κB transcriptional activity (SEAP reporter) in HEK-Blue TLR7 cells; assay type: cell-based
T1 construct: host or cells: HEK-Blue TLR7 (HEK293-derived)
T1 sequence (Q9NYK1 27-1049): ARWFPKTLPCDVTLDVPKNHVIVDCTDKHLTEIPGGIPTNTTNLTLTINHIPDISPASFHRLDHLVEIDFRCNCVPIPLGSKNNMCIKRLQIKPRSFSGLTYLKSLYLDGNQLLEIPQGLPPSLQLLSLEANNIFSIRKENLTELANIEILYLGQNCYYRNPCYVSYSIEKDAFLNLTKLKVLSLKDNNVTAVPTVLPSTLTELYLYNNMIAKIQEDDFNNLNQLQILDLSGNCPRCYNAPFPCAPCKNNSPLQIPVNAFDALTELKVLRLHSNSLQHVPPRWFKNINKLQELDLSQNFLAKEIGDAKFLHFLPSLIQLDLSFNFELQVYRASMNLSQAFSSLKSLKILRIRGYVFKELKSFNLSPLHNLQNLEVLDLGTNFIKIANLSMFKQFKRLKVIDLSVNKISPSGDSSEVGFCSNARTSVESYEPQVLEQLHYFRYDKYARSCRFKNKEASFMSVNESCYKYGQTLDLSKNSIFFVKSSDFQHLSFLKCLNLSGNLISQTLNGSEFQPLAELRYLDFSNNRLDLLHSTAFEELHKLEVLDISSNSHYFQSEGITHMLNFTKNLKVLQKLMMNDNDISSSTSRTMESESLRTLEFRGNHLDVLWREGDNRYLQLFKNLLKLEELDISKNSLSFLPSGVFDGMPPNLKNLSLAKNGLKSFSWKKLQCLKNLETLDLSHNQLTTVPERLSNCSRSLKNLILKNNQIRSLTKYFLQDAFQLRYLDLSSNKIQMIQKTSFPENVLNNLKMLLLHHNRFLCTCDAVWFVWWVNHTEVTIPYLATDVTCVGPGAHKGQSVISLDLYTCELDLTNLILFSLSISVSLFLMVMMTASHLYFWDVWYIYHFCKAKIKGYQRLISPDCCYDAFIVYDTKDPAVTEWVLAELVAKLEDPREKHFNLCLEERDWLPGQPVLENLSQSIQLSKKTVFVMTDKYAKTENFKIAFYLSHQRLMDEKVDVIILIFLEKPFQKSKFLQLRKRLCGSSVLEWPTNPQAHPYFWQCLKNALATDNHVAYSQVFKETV
Excerpt: HEK-Blue NOD1 (Cat. code: hkb-hnod1), NOD2 (Cat. code: hkb-hnod2), and TLR7 (Cat. code: hkb-htlr7) cell lines (Invivogen, San Diego, CA) are derived from HEK293 cells by co-transfection of the hNOD1, hNOD2, or hTLR7 genes, respectively, and a nuclear factor-κB (NF-κB)-inducible secreted embryonic alkaline phosphatase (SEAP) reporter gene. Following activation of the respective receptors, the resulting NF-κB induces the production of SEAP, the levels of which can be quantified colorimetrically. […] All of the subsequent passages were cultured in medium additionally supplemented with 100 μg/mL Zeocin (Invivogen) and 30 μg/mL Blasticidin (Invivogen) for HEK-Blue NOD1 and NOD2 cells, or with 100 μg/mL Zeocin (Invivogen) and 10 μg/mL Blasticidin (Invivogen) for HEK-Blue TLR7 cells.
After 18 h of incubation (37 °C, 5% CO2), SEAP activity was determined spectrophotometrically as absorbance at 630 nm (BioTek Synergy microplate reader; Winooski, VT). EC50 values were calculated using the Prism software (version 9; GraphPad Software, CA).

human PBMCs = assay: Cytokine release from peripheral blood mononuclear cells; assay type: cell-based; settings: 1 μM, 18 h
Protocol: Human PBMCs from healthy and consenting donors were isolated from heparinized blood by density gradient centrifugation using Ficoll-Paque (Pharmacia, Sweden).
Peripheral blood mononuclear cells were seeded (1 × 10^6 cells/mL) in 24-well plates in 500 μL of growth medium and treated with the compounds (1 μM), lipopolysaccharide (LPS; 1 μg/mL), or the corresponding vehicle (0.1% DMSO). Cell-free supernatants were collected after 18 h of incubation (37 °C, 5% CO2) and stored at −80 °C until tested. Cytokine production was determined with BD Cytometric Bead Array human inflammatory cytokines kit (BD Bioscience) on an Attune NxT flow cytometer (Thermo Fisher Scientific, Waltham, MA). Standard curves were generated using recombinant cytokines contained in the kit. The data were analyzed using the FlowJo (Tree Star, Inc., Ashland, OR) and Prism (GraphPad, San Diego, CA) software. Statistical significance was determined with one-way ANOVA with subsequent Bonferroni’s multiple comparisons test.

NIH/OlaHsd mice = assay: Mouse immunization with OVA, OVA-specific serum antibodies (ELISA); assay type: in vivo; settings: s.c. days 0, 21, 42; OVA 10 μg + compound 50 μg; 7 days after last dose
Protocol: NIH/OlaHsd inbred mice were raised at the Institute of Immunology, Croatia. All mice used were females, from 2.0 to 2.5 months old. During the experimental period, the mice were housed in the Animal Facility of the Institute of Immunology, with food and water provided ad libitum.
Sex-matched NIH/OlaHsd mice (five per group) were immunized subcutaneously into the tail base with OVA (10 μg; Serva, Germany) alone or plus the compounds (50 μg) on days 0, 21, and 42. The injection volume in all of the experimental groups was 0.1 mL per mouse. On the seventh day after the second booster dose, the mice were anesthetized with i.p. application of ketamine/xylazine (25 mg/kg each) prior to blood collection from the axillary plexus. Individual sera from each animal were decomplemented at 56 °C for 35 min and then stored at −20 °C until tested.
The levels of the OVA-specific total IgG, IgG1, and IgG2a in mice sera were determined by ELISA. Briefly, high-binding ELISA plates (Costar) were coated with a 15 μg/mL solution of OVA (Serva, Germany) in carbonate buffer (pH 9.6). Nonspecific antibody binding was blocked by 0.5% w/v bovine serum albumin in PBS-T (0.05% [v/v] Tween 20 in PBS) for 2 h at 37 °C. After washing, five serial dilutions of mice sera and standard preparations were added in duplicates. Plates were incubated overnight at room temperature, washed, and analyzed for OVA-specific IgG levels by incubation with HRP-conjugated goat anti-mouse IgG (2 h at 37 °C; Bio-Rad Laboratories), and then after washing, with 0.6 mg/mL o-phenylenediaminedihydrochloride solution in citrate-phosphate buffer, pH 5.0, with 0.5 μL 30% H2O2/mL for 30 min at room temperature in the dark. The enzymatic reaction was stopped with 12.5% H2SO4, and absorbance at 492 nm was measured using a microplate reader (Thermo Fisher Scientific, Waltham, MA).
For the determination of OVA-specific IgG1 and IgG2a, the plates were incubated with biotin-conjugated rat anti-mouse IgG1 or IgG2a (2 h at 37 °C; PharMingen, Becton Dickinson) and subsequently with streptavidin-peroxidase (Pharmingen) for 2 h at 37 °C. After washing, the substrate solution was added and incubated for 30 min at room temperature in the dark, as described above. The enzymatic reaction was stopped with 12.5% H2SO4 and absorbance at 492 nm was measured using a microplate reader. The relative quantities of antibodies were determined by parallel line assays using appropriate standard preparations of anti-OVA IgG, anti-OVA IgG1, and anti-OVA IgG2a antibodies with voluntarily assigned 20.000 AU/mL, 400.000 AU/mL, and 5000 AU/mL, respectively.[65] Statistical significance was determined with one-way ANOVA with subsequent Dunnett’s multiple comparisons test.

CCCCOc1nc(N)c2nc(O)n(Cc3ccc(C(=O)NCCOCCNC(=O)CC[C@@H](NC(=O)[C@@H](NC(=O)CNC(=O)/C=C/c4ccc(O)c(OC)c4)C(C)C)C(=O)OCC)cc3)c2n1 [Compound 4, Ethyl N5-(2-(2-(4-((6-amino-2-butoxy-8-hydroxy-9H-purin-9-yl)methyl)benzamido)ethoxy)ethyl)-N2-((E)-3-(4-hydroxy-3-methoxyphenyl)acryloyl)glycyl-L-valyl-D-glutaminate]
EC50 (TLR7; HEK-Blue TLR7 cells, 18 h, eight concentrations 1 nM to 10 μM, NA, not active): 36 nM
fold improved TLR7 activity over 1 (TLR7; ratio of EC50 values in HEK-Blue TLR7 cells): 10 fold
IL12p70 secretion (human PBMCs): induced secretion of IL12p70
production of IL-1β, IL-6, IL-8, IL-10 and TNF (human PBMCs): considerably stronger effects compared to 3
IgG2a/IgG1 ratio (Th1/Th2 polarization) (NIH/OlaHsd mice): trend toward increased IgG2a/IgG1 ratios
OVA-specific IgG1 titers (NIH/OlaHsd mice): increased the titers
OVA-specific IgG2a titers (NIH/OlaHsd mice): increased the titers
serum OVA-specific IgG titers (NIH/OlaHsd mice): significantly higher
